Results: US6583150B1, “Pharmaceutical composition based on polyaromatic compounds” (Laboratorie L. Lafon, priority 1999, dated 2003)

Legend:
[1] = Determination of the maximum tolerated dose (MTD); format: in vivo; settings: mouse, in vivo, ip; single intraperitoneal administration, survival over 14 days, B6D2F1/Jico mice
Experimental: The evaluation of the maximum tolerated dose was carried out on 4- to 6-week-old B6D2F1/Jico mice. […] The value of the MTD (expressed in mg/kg) is determined from observing the survival rate of the animals over a period of 14 days after a single administration of the product under consideration. The change in the weight of the animals is also monitored over this period.

[2] = tested on: U-87MG; test: MTT cytotoxicity test, U-87MG; format: cell-based; settings: Homo sapiens, U-87MG glioblastoma, 72 hours, read-out: concentrations flanking the IC50
Experimental: (§1) The influence of the compounds of formulae I and II on neoplastic cells was evaluated using the MTT calorimetric test. The principle of the MTT test is based on the mitochondrial reduction by metabolically active live cells of the yellow-colored product MTT (3-(4,5-dimethylthiazol-2-yl)-2,5-diphenyltetrazolium bromide) to a blue-colored product, formazan. The amount of formazan thus obtained is directly proportional to the amount of live cells present in the culture well(s). This amount of formazan is measured by spectrophotometry.
(§2) The cell lines are maintained in monolayer culture at 37° C. in stoppered culture dishes containing 25 MM HEPES MEM (Minimum Essential Medium) base medium. This medium, which is suitable for growing a range of varied diploid or primary mammalian cells, is then supplemented: […]
(§3) with a an amount of 5% FCS (Fetal Calf Serum) decomplemented at 56° C. for 1 hour, with 0.6 mg/mL of L-glutamine, with 200 IU/mL of penicillin, with […] of streptomycin, with 0.1 mg/mL of gentamicin.
(§4) The 12 human cancer cell lines used were obtained from the American Type Culture Collection (ATCC, Rockville, Md., USA). These 12 cell lines are:
(§5) U-373MG (code ATCC: HTB-17) and U-87MG (code ATCC: HTB-14) which are two glioblastomas, Experimentally: 100 μl of a cell suspension containing 200 000 to 50 000 (depending on the cell type used) cells/mL of culture medium are inoculated in flat-bottomed 96-well multi-well plates and are incubated at 37° C. under an atmosphere comprising 5% CO2 and 70% humidity. […] The intensity of the resulting blue coloration, and thus of the conversion of the yellow MTT product into blue formazan by the cells that are still alive at the end of the experiment is quantified by spectrophotometry using a DYNATECH IMMUNOASSAY SYSTEM machine at wavelengths of 570 nm and 630 nm corresponding, respectively, to the maximum absorption wavelengths of formazan and to the background noise. […]

[3] = tested on: U-373MG; test: MTT cytotoxicity test, U-373MG; format: cell-based; settings: Homo sapiens, U373 MG, U-373MG glioblastoma, 72 hours, read-out: concentrations flanking the IC50
Experimental: as §1, §2, §3, §4, §5

[4] = tested on: A549; test: MTT cytotoxicity test, A549; format: cell-based; settings: Homo sapiens, A549 non-small-cell lung cancer, 72 hours, read-out: concentrations flanking the IC50
Experimental: as §1, §2, §3
The 12 human cancer cell lines used were obtained from the American Type Culture Collection (ATCC, Rockville, Md., USA). These 12 cell lines are: […]

[5] = tested on: 12 human tumor lines: U-87MG, U-373MG, SW 1088, T24, J82, HCT-15, LoVo, MCF7, T-47D, A549, A-427 and PC-3; test: MTT cytotoxicity test, panel of the 12 human tumor lines; format: cell-based; settings: Homo sapiens, read-out: average IC50
Experimental: as §1, §2, §3, §4
U-373MG (code ATCC: HTB-17) and U-87MG (code ATCC: HTB-14) which are two glioblastomas, SW1088 (code ATCC: HTB-12) which is an astrocytoma, A549 (code ATCC: CCL-185) and A-427 (code ATCC: HTB-53) which are two non-small-cell lung cancers, HCT-15 (code ATCC: CCL-225) and LoVo (code ATCC: CCL-229) which are two colorectal cancers, T-47D (code ATCC: HTB-133) and MCF7 (code ATCC: HTB-22) which are two breast cancers, J82 (code ATCC: HTB-1) and T24 (code ATCC: HTB-4) which are two bladder cancers, PC-3 (code ATCC: CRL-1435) which is a prostate cancer.
Experimentally: 100 μl of a cell suspension containing 200 000 to 50 000 (depending on the cell type used) cells/mL of culture medium are inoculated in flat-bottomed 96-well multi-well plates and are incubated at 37° C. under an atmosphere comprising 5% CO2 and 70% humidity. After incubating for 24 hours, the culture medium is replaced with 100 μl of fresh medium containing either the various test compounds at concentrations ranging from 10^−5 to 10^−10 M or the solvent used to dissolve the test products (control condition). After incubating for 72 hours under the above conditions, the culture medium is replaced with 100 μl of a yellowish solution of MTT dissolved at a rate of 1 mg/mL in RPMI 1640. The microplates are reincubated for 3 hours at 37° C. and then centrifuged for 10 minutes at 400×g. The yellowish solution of MTT is removed and the blue formazan crystals formed at the cellular level are dissolved in 100 μl of DMSO. The microplates are then agitated for 5 minutes. The intensity of the resulting blue coloration, and thus of the conversion of the yellow MTT product into blue formazan by the cells that are still alive at the end of the experiment is quantified by spectrophotometry using a DYNATECH IMMUNOASSAY SYSTEM machine at wavelengths of 570 nm and 630 nm corresponding, respectively, to the maximum absorption wavelengths of formazan and to the background noise. Software built into the spectrophotometer calculates the average optical density values and also the standard deviation (Std. Dev.) and standard error of mean (SEM) values.
The inhibitory activity on the cell growth of the compounds of formula I and of formula II on the different tumor cell lines was compared with that of the natural product meridine (CRL 8348). All of the compounds of formula I and of formula II show significant inhibitory activity on the cell proliferation of the 12 human tumor lines: U-87MG, U-373MG, SW 1088, T24, J82, HCT-15, LoVo, MCF7, T-47D, A549, A-427 and PC-3 with an inhibitory concentration 50 (IC50) which is between 10^−6 M and 10^−10M, depending on the compounds and the tumor lines tested. By way of example, the values of the concentrations flanking the IC50 which are obtained on the various cell lines are given in table II: […]

COc1ccnc2c1C(=O)c1c(-c3ccccc3NC(=O)C(F)(F)F)ccnc1C2=O [CRL 8275, 6-Methoxy-4-(2-trifluoroacetamidophenyl)pyrido-[3,2-g]quinoline-5,10-dione]
MTD at 14 days [1]: 80 mg/kg
IC50 [2]: < 0.1 nM
IC50 [3]: < 0.1 nM
IC50 [4]: < 0.1 nM
IC50 [5]: 2.3 nM
